How the values were obtained:
Test in all cases: KINOMEscan competition binding
Details in all cases: compound 10.0 µM
[1] = target: ACVR1 (human) (UniProt Q04771)
[2] = target: ACVRL1 (human) (UniProt P37023)
[3] = target: AKT1 (human) (UniProt P31749)
[4] = target: AURKB (human) (UniProt Q96GD4)
[5] = target: CAMK2G (human) (UniProt Q13555)
[6] = target: CDC42BPA (human) (UniProt Q5VT25)
[7] = target: CDC42BPG (human) (UniProt Q6DT37)
[8] = target: CLK1 (human) (UniProt P49759)
[9] = target: CLK2 (human) (UniProt P49760)
[10] = target: CSNK1E (human) (UniProt P49674)
[11] = target: CSNK1G2 (human) (UniProt P78368)
[12] = target: EPHA6 (human) (UniProt Q9UF33)
[13] = target: EPHB1 (human) (UniProt P54762)
[14] = target: IKBKE (human) (UniProt Q14164)
[15] = target: LCK (human) (UniProt P06239)
[16] = target: MAP2K6 (human) (UniProt P52564)
[17] = target: MAP3K11 (human) (UniProt Q16584)
[18] = target: MAP3K12 (human) (UniProt Q12852)
[19] = target: MAP4K1 (human) (UniProt Q92918)
[20] = target: MAP4K3 (human) (UniProt Q8IVH8)
[21] = target: MAPK7 (human) (UniProt Q13164)
[22] = target: MAPKAPK2 (human) (UniProt P49137)
[23] = target: MAPKAPK5 (human) (UniProt Q8IW41)
[24] = target: MARK1 (human) (UniProt Q9P0L2)
[25] = target: PIK3C2B (human) (UniProt O00750)
[26] = target: PIK3CB (human) (UniProt P42338)
[27] = target: PRKG2 (human) (UniProt Q13237)
[28] = target: STK17A (human) (UniProt Q9UEE5)
[29] = target: STK25 (human) (UniProt O00506)
[30] = target: TIE1 (human) (UniProt P35590)
[31] = target: DYRK1A (human) (UniProt Q13627)
[32] = system: EGFR (human), P00533 [T790M/L858R]
[33] = target: GRK1 (human) (UniProt Q15835)
[34] = target: GRK7 (human) (UniProt Q8WTQ7)
[35] = target: NIM1 (human) (UniProt Q8IY84)

Chain of MARK1 (human) (Q9P0L2 whole entry, looked up): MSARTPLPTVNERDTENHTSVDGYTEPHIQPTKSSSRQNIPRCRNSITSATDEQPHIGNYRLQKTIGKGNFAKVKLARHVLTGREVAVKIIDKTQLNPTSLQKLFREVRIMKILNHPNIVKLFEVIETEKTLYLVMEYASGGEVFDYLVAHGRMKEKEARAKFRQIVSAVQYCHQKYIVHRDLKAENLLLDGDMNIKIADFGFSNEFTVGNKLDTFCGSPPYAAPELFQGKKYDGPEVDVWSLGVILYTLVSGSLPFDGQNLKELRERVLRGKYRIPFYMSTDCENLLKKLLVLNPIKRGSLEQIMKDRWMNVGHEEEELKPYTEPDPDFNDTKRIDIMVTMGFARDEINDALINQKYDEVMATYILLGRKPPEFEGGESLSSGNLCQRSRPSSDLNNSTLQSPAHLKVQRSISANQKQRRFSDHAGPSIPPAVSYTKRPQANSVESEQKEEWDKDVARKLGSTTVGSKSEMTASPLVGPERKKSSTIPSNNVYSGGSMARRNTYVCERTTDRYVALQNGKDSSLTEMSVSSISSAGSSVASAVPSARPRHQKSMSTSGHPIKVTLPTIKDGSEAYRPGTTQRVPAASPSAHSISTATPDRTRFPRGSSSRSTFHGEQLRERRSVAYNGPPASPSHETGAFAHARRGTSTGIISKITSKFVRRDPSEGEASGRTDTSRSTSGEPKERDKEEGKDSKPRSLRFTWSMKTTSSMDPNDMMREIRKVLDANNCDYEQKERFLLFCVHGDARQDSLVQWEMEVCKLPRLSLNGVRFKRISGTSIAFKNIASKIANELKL
Chain of AURKB (human) (Q96GD4 whole entry, looked up): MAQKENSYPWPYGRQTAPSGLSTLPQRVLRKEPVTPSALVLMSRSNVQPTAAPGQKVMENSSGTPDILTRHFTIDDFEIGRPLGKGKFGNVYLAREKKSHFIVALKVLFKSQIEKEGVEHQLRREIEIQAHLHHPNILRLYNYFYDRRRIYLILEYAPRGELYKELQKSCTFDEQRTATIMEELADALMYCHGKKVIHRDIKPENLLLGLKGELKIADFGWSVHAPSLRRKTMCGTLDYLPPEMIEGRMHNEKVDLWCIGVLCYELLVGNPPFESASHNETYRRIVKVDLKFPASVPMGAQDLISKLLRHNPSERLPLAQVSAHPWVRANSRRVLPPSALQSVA
Chain of TIE1 (human) (P35590 whole entry, looked up): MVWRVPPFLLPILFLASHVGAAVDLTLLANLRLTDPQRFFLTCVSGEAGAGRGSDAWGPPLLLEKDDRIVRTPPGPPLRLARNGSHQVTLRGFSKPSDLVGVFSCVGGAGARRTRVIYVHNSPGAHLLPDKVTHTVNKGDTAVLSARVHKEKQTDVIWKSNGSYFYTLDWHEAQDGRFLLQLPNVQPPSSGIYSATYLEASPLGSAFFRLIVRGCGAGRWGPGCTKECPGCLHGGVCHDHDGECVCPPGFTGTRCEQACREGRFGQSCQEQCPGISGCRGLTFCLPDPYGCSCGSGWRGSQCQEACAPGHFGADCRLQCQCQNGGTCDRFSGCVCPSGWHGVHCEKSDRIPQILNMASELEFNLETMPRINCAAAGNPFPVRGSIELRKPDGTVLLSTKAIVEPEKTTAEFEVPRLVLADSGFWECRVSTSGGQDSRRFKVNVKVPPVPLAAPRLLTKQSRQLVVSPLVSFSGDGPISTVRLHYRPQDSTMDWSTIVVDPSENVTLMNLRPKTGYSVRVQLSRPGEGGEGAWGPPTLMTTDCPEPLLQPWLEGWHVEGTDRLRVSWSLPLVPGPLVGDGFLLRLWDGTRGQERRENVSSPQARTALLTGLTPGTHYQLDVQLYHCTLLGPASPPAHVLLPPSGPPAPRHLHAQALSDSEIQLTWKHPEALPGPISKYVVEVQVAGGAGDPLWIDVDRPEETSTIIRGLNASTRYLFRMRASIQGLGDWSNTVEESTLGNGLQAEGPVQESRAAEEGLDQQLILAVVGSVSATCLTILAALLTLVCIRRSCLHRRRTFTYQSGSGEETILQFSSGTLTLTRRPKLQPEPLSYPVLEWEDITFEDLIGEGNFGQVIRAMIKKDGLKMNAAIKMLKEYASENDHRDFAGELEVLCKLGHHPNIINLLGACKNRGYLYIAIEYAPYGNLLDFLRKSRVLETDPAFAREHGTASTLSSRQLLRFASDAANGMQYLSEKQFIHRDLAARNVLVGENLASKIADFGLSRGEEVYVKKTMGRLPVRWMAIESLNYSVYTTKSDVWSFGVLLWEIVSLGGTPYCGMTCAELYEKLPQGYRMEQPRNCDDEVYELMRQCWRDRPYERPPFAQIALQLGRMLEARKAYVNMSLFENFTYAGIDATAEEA
Chain of AKT1 (human) (P31749 whole entry, looked up): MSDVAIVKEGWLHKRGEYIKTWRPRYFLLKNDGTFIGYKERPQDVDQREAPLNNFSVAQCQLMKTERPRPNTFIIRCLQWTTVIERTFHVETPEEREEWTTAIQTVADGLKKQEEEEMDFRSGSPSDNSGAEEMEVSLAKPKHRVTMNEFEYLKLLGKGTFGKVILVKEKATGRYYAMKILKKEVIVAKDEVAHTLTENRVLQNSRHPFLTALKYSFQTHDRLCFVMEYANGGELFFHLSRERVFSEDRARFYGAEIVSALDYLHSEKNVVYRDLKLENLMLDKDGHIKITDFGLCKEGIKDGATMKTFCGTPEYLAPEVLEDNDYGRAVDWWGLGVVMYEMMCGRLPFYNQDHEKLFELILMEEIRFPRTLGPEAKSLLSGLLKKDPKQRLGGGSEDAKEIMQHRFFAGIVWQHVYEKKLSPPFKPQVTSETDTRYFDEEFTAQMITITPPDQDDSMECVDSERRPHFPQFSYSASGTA
Chain of MAP4K3 (human) (Q8IVH8 whole entry, looked up): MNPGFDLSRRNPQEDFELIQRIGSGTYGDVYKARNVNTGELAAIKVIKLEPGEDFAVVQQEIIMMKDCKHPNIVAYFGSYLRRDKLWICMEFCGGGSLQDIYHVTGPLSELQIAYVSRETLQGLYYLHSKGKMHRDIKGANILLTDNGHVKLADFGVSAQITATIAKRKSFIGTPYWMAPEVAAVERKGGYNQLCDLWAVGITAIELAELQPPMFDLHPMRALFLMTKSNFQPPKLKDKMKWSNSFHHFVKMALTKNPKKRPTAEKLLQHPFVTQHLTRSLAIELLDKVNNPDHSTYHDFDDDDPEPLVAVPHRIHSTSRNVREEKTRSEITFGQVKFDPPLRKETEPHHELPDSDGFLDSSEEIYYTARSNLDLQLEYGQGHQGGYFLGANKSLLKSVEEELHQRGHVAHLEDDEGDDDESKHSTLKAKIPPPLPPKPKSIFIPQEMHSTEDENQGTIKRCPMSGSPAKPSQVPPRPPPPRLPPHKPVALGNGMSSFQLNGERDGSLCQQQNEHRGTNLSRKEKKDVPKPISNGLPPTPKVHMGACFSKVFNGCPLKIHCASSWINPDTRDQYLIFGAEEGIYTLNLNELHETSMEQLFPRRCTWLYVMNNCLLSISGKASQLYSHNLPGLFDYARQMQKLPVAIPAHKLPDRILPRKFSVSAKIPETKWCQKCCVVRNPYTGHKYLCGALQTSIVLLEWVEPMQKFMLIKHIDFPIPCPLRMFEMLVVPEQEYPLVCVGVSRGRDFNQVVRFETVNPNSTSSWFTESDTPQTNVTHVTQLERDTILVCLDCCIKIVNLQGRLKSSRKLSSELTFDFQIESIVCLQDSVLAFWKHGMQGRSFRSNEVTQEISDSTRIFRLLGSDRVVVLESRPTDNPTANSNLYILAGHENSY
Chain of CAMK2G (human) (Q13555 whole entry, looked up): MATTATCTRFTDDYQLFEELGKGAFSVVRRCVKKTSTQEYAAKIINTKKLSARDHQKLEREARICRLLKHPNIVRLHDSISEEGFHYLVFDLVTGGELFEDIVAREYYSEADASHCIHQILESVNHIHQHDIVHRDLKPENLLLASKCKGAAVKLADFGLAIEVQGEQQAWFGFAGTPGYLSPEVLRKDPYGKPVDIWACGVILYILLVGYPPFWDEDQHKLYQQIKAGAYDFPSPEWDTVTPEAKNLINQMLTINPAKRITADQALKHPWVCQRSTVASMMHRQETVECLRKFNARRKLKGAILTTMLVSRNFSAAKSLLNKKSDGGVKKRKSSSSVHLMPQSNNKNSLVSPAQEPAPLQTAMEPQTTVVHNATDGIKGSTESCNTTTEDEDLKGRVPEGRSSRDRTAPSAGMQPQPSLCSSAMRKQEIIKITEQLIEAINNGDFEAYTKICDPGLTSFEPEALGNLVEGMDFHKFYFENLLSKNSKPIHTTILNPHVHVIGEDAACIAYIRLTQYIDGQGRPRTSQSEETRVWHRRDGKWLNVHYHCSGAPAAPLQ
Chain of MAPKAPK5 (human) (Q8IW41 whole entry, looked up): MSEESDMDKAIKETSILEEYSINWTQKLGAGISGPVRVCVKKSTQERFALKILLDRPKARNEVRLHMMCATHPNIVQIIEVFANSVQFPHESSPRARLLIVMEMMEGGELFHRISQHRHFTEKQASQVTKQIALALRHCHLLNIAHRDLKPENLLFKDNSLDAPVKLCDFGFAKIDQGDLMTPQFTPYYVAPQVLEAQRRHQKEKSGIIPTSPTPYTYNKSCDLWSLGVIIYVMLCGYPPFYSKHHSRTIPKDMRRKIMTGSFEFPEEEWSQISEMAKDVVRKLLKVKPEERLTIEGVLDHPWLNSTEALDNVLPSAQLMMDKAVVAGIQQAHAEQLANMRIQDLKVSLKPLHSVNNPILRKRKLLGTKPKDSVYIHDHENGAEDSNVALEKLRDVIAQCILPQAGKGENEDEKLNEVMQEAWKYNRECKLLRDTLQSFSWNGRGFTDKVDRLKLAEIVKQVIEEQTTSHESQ
Chain of MAP2K6 (human) (P52564 whole entry, looked up): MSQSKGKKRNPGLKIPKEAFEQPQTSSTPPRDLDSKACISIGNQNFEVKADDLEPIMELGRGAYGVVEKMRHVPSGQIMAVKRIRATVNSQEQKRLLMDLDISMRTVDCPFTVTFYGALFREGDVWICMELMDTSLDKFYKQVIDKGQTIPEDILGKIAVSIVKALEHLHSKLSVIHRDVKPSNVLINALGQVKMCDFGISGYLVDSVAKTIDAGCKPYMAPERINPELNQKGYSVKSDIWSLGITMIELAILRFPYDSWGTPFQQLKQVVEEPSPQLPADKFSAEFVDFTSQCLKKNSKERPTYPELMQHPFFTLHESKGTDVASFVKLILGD

SMILES	kinase still bound, per cent of control [1] [%]	kinase still bound, per cent of control [2] [%]	kinase still bound, per cent of control [3] [%]	kinase still bound, per cent of control [4] [%]	kinase still bound, per cent of control [5] [%]	kinase still bound, per cent of control [6] [%]	kinase still bound, per cent of control [7] [%]	kinase still bound, per cent of control [10] [%]	kinase still bound, per cent of control [11] [%]	kinase still bound, per cent of control [12] [%]	kinase still bound, per cent of control [13] [%]	kinase still bound, per cent of control [14] [%]	kinase still bound, per cent of control [15] [%]	kinase still bound, per cent of control [16] [%]	kinase still bound, per cent of control [18] [%]	kinase still bound, per cent of control [19] [%]	kinase still bound, per cent of control [20] [%]	kinase still bound, per cent of control [21] [%]	kinase still bound, per cent of control [22] [%]	kinase still bound, per cent of control [23] [%]	further results
C=CC(=O)Nc1ccc(CN(C(=O)Nc2c(Cl)c(OC)cc(OC)c2Cl)c2cc(Nc3ccc(N4CCN(C)CC4)cc3)ncn2)cc1	100	100	100	100	100	100	100	100	100	100	100	100	0.2	100	100	16	7.4	9.7	100	100	kinase still bound, per cent of control [8]: 100%; kinase still bound, per cent of control [9]: 100%; kinase still bound, per cent of control [17]: 10%; kinase still bound, per cent of control [24]: 100%; kinase still bound, per cent of control [25]: 100%; kinase still bound, per cent of control [26]: 100%; kinase still bound, per cent of control [27]: 100%; kinase still bound, per cent of control [28]: 100%; kinase still bound, per cent of control [29]: 100%; kinase still bound, per cent of control [30]: 0%
CS(=O)(=O)N1CCN(Cc2cc3nc(-c4cccc5[nH]ncc45)nc(N4CCOCC4)c3s2)CC1	100	100	100	100	100	100	100	100	100	100	100	100	100	100	100	100	100	100	100	100	kinase still bound, per cent of control [31]: 100%; kinase still bound, per cent of control [32]: 100%; kinase still bound, per cent of control [33]: 100%; kinase still bound, per cent of control [34]: 100%; kinase still bound, per cent of control [24]: 100%; kinase still bound, per cent of control [35]: 100%; kinase still bound, per cent of control [25]: 22%; kinase still bound, per cent of control [26]: 0.1%; kinase still bound, per cent of control [27]: 100%; kinase still bound, per cent of control [28]: 100%; kinase still bound, per cent of control [29]: 100%
Cc1n[nH]c2ccc(-c3cncc(OC[C@@H](N)Cc4c[nH]c5ccccc45)c3)cc12	100	100	1.8	100	5.4	6.6	0.8	0.05	0.65	100	100	24	100	100	100	23	9.5	100	100	100	kinase still bound, per cent of control [8]: 0%; kinase still bound, per cent of control [9]: 0.05%; kinase still bound, per cent of control [17]: 100%; kinase still bound, per cent of control [24]: 100%; kinase still bound, per cent of control [25]: 100%; kinase still bound, per cent of control [26]: 100%; kinase still bound, per cent of control [27]: 5.7%; kinase still bound, per cent of control [28]: 5.4%; kinase still bound, per cent of control [29]: 100%; kinase still bound, per cent of control [30]: 31%
CCN(CC)CCCCNc1ncc2cc(-c3cc(OC)cc(OC)c3)c(NC(=O)NC(C)(C)C)nc2n1	100	100	100	100	100	100	100	100	100	100	100	100	22	100	100	100	100	36	100	100	kinase still bound, per cent of control [8]: 100%; kinase still bound, per cent of control [9]: 100%; kinase still bound, per cent of control [17]: 100%; kinase still bound, per cent of control [24]: 100%; kinase still bound, per cent of control [27]: 100%; kinase still bound, per cent of control [28]: 100%; kinase still bound, per cent of control [29]: 9.4%; kinase still bound, per cent of control [30]: 12%
CNC(=O)c1ccc(Nc2cc(Nc3ccccc3S(=O)(=O)C(C)C)c3cc[nH]c3n2)nc1	100	100	100	0.7	100	100	100	29	3.1	29	100	100	0.3	29	0.4	7.9	1	100	100	100	kinase still bound, per cent of control [8]: 0.15%; kinase still bound, per cent of control [9]: 4.7%; kinase still bound, per cent of control [17]: 7.2%; kinase still bound, per cent of control [24]: 26%; kinase still bound, per cent of control [25]: 100%; kinase still bound, per cent of control [26]: 100%; kinase still bound, per cent of control [27]: 25%; kinase still bound, per cent of control [28]: 100%; kinase still bound, per cent of control [29]: 100%; kinase still bound, per cent of control [30]: 0.2%

— the kinase profiling compilation of Christmann-Franck et al. (2016)
